Calls of active or inactive are those of the source.
Columns and labels:
[1] = target: Ribosomal protein S6 kinase alpha-3 (Homo sapiens, UniProt P51812); assay type: functional;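 also: measured within a kinome-wide profiling panel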
[2] = target: T1, Serine/threonine-protein kinase TBK1 (Homo sapiens, UniProt Q9UHD2); test: Navigating the Kinome. Panel member name: TBK1; assay type: functional
T1 sequence (Q9UHD2 whole entry): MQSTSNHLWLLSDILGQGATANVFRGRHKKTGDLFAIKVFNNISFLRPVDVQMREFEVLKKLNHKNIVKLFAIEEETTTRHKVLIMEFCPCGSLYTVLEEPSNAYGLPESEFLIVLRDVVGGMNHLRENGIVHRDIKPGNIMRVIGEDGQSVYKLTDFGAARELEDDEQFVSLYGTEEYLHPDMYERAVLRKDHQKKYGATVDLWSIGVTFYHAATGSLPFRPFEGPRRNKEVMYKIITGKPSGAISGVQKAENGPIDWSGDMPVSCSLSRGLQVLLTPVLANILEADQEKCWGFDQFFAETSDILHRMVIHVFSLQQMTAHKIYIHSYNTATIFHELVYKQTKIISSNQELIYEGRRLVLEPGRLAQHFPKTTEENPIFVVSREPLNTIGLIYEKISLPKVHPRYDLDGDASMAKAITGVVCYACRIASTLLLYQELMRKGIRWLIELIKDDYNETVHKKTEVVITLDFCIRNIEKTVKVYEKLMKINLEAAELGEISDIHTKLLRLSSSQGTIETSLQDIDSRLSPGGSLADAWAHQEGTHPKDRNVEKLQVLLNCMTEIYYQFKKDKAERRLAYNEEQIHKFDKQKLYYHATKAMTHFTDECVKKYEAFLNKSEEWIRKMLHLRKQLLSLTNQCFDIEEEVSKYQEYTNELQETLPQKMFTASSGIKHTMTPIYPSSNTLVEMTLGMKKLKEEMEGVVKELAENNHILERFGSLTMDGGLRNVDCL

[3] = target: Proto-oncogene tyrosine-protein kinase receptor Ret (Homo sapiens, UniProt P07949); assay type: functional;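 also: measured within a kinome-wide profiling panel, RET as the panel member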
[4] = target: Mitogen-activated protein kinase 9 (Homo sapiens, UniProt P45984); assay type: functional;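 also: value from a kinome panel profiling assay, MAPK9 panel entry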
Chain of Mitogen-activated protein kinase 9 (P45984 whole entry, the tested form may be a part): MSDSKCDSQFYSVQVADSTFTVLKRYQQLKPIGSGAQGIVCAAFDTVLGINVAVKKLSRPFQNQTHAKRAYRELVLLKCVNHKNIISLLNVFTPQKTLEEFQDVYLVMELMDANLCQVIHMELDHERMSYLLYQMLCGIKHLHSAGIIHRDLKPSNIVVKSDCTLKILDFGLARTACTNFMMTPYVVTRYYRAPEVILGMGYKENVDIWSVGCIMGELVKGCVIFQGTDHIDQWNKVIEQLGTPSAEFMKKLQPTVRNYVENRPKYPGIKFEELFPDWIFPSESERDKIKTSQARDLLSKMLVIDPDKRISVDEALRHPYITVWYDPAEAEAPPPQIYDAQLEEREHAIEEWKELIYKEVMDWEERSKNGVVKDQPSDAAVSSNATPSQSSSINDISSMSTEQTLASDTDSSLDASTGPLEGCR

LIM domain kinase 1 = LIM domain kinase 1 (Homo sapiens, UniProt P53667); test: Navigating the Kinome. Panel member name: LIMK1; assay type: functional
[5] = target: Platelet-derived growth factor receptor beta (Homo sapiens, UniProt P09619); assay type: functional;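 also: value comes from a kinome panel, with PDGFRB tested as one panel member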
Chain of Platelet-derived growth factor receptor beta (P09619 whole entry): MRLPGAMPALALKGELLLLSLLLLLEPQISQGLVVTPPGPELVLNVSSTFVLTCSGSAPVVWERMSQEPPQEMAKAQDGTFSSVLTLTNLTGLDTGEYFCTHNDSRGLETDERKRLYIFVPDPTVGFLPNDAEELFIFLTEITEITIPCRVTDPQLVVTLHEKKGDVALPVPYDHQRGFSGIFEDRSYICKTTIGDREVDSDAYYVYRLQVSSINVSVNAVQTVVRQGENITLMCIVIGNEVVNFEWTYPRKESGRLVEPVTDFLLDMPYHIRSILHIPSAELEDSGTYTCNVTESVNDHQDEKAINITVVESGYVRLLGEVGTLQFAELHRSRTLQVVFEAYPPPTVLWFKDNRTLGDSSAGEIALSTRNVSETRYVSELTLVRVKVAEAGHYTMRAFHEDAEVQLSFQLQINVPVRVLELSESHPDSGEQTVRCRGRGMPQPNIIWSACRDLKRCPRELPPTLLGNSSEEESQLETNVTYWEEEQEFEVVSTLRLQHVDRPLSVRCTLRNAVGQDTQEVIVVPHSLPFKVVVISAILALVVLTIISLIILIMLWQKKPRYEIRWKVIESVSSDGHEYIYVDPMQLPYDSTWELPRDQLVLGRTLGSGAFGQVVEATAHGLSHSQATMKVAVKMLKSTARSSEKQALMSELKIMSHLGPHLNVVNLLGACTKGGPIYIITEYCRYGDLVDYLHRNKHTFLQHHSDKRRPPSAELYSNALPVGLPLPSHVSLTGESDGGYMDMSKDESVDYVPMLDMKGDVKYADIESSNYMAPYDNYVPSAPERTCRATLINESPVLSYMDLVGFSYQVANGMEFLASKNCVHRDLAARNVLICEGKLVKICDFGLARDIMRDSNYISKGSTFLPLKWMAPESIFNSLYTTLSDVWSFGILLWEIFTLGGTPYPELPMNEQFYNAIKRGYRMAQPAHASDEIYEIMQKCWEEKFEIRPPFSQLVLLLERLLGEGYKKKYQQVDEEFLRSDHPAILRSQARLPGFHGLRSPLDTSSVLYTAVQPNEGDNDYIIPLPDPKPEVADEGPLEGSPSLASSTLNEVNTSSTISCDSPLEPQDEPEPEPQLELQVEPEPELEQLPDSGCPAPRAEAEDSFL

[6] = target: G protein-coupled receptor kinase 5 (Homo sapiens, UniProt P34947); test: Navigating the Kinome. Panel member name: GPRK5; assay type: functional
Chain of G protein-coupled receptor kinase 5 (P34947 whole entry): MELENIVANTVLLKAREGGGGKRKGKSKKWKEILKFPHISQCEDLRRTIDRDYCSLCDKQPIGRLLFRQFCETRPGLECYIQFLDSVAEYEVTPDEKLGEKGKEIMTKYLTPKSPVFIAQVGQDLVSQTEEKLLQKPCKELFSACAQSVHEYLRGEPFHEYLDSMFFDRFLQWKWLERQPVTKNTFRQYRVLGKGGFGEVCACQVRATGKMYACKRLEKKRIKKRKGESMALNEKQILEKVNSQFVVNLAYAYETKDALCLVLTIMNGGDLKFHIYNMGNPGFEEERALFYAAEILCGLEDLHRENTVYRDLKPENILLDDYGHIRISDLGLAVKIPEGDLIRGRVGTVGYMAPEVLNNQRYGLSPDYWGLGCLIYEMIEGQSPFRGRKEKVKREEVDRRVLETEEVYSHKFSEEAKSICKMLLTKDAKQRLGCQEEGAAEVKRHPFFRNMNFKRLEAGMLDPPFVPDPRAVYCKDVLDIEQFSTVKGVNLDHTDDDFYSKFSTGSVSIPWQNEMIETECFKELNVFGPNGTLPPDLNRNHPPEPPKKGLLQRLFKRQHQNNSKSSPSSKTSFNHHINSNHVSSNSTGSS

[7] = target: Insulin-like growth factor 1 receptor (Homo sapiens, UniProt P08069); test: Navigating the Kinome. Panel member name: IGF1R; assay type: functional
Chain of Insulin-like growth factor 1 receptor (P08069 31-736 limits assumed): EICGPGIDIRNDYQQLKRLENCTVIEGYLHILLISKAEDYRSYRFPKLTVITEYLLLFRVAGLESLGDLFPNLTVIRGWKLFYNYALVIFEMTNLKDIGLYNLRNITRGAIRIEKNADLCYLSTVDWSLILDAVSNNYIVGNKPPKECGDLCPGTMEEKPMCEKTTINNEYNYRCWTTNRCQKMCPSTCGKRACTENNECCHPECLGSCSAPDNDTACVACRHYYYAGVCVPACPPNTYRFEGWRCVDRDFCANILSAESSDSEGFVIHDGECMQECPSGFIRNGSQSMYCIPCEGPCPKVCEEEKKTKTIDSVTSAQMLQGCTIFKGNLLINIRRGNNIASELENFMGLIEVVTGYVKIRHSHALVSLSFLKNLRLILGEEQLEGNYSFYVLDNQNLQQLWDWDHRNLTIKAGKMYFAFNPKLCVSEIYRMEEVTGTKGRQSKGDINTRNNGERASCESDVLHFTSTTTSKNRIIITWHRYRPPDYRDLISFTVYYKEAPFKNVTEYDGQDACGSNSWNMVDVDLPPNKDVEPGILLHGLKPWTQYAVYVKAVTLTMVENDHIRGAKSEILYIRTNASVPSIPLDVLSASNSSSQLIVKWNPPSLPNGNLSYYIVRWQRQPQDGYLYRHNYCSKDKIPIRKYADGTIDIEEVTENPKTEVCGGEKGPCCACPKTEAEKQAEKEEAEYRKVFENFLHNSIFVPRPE
Chain of Insulin-like growth factor 1 receptor (P08069 741-1367 limits assumed): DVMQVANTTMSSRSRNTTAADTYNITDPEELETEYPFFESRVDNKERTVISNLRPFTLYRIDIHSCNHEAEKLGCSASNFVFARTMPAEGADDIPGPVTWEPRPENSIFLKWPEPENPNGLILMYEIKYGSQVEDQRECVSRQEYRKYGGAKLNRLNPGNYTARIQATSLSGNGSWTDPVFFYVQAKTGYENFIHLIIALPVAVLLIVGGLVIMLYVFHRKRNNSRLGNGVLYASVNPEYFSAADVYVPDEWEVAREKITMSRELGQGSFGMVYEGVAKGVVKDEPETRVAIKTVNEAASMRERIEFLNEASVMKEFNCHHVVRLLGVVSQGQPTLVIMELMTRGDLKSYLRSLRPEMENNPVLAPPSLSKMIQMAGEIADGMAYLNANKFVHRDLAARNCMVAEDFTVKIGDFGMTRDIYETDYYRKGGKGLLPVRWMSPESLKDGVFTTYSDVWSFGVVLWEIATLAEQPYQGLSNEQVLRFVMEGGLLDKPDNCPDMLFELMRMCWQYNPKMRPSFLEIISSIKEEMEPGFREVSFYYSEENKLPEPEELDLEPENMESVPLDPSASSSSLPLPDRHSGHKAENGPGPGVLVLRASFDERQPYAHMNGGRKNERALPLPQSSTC

[8] = target: Cyclin-dependent kinase 7 (Homo sapiens, UniProt P50613); assay type: functional;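 also: value comes from a kinome-wide kinase profiling panel in which CDK7 is one member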
Chain of Cyclin-dependent kinase 7 (P50613 whole entry): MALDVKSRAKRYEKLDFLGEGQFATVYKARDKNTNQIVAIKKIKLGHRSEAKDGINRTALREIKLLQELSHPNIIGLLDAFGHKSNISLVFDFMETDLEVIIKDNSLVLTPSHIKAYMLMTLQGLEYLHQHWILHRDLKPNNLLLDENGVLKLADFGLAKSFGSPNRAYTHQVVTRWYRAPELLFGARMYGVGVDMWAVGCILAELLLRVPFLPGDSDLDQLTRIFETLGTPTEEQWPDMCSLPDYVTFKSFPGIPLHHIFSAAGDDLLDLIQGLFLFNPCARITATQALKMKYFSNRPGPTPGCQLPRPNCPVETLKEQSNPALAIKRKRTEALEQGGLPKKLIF

[9] = target: Leukocyte tyrosine kinase receptor (Homo sapiens, UniProt P29376); test: Navigating the Kinome. Panel member name: LTK; assay type: functional
Chain of Leukocyte tyrosine kinase receptor (P29376 whole entry): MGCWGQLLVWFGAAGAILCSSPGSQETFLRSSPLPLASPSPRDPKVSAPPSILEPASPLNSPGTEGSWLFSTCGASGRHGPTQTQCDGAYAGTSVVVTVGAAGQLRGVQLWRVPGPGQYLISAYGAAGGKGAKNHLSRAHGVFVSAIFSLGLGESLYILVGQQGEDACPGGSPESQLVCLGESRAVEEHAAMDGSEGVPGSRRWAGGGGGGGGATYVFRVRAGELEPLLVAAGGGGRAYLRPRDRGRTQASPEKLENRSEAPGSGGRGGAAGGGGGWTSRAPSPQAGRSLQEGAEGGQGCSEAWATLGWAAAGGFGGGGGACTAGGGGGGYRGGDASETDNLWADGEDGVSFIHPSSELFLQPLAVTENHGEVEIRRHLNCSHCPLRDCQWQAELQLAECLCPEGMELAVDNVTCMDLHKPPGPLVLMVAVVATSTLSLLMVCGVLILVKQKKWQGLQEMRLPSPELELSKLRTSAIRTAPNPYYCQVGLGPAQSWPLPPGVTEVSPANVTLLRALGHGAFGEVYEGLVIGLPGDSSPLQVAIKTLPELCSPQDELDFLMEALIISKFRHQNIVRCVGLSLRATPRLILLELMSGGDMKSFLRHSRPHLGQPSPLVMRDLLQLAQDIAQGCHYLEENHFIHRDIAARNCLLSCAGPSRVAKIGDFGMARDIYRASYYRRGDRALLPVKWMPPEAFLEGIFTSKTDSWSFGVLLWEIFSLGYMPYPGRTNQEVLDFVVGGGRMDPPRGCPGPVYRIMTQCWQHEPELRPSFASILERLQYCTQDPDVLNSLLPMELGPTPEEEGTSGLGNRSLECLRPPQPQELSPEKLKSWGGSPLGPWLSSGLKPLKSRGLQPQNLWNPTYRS

[10] = target: T2, Histone-lysine N-methyltransferase NSD2 (Homo sapiens, UniProt O96028); assay type: biochemical
T2 sequence (O96028 whole entry): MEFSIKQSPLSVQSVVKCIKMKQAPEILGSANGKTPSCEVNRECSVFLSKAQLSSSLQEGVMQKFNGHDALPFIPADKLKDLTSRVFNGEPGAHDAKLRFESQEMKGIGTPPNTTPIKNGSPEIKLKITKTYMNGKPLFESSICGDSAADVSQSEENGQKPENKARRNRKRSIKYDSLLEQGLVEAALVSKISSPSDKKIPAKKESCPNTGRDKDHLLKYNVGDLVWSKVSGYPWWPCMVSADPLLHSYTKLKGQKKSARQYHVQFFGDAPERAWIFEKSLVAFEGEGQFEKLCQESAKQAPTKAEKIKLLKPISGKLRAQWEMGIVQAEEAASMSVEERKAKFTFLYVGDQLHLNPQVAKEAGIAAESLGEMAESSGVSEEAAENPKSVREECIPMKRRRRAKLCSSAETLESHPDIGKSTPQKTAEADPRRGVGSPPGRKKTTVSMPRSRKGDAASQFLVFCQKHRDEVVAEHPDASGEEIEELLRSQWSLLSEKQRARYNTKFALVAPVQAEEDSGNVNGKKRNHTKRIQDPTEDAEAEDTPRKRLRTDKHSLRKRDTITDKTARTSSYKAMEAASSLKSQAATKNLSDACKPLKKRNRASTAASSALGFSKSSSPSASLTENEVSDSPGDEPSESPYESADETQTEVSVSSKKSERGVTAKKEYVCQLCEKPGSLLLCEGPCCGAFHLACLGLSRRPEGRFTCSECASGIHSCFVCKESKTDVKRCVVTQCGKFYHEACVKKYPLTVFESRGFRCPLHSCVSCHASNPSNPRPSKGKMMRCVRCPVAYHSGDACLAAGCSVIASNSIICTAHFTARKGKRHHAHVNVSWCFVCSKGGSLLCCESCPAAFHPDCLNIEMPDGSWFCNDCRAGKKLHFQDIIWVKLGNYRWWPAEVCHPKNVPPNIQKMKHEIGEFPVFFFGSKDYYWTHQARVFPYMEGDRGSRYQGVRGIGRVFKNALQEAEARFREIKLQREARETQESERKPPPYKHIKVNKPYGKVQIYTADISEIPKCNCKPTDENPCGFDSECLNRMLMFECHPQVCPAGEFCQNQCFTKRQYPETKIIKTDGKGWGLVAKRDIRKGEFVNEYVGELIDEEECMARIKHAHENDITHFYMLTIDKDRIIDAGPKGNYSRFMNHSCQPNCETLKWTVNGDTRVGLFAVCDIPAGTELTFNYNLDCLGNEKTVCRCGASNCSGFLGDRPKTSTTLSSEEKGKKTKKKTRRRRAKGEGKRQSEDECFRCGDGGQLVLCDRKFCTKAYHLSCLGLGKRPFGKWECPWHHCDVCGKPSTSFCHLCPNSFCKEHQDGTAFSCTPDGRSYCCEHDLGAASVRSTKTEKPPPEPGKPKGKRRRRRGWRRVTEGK

BJ = test: BJ-TERT-LT-ST fibroblast viability loss – cell-based, RAS-independent, luminescence, dose response (AID 1935); assay type: functional; conditions: Homo sapiens;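 also: BJ fibroblasts immortalized with TERT plus LT and ST oncogenes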
Nonstructural protein 1 = Nonstructural protein 1 (Influenza A virus, UniProt Q194T2); assay type: functional, Influenza A virus (A/California/07/2009(H1N1))
Chain of Nonstructural protein 1 (Q194T2 whole entry): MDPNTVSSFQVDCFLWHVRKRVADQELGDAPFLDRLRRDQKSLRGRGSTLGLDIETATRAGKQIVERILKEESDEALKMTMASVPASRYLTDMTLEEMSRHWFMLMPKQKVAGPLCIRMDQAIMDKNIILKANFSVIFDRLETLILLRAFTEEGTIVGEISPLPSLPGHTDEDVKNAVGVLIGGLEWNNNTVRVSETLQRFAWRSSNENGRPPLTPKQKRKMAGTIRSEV

Vero = test: viability of Vero cells under compound – cytotoxicity control for flavivirus capping enzyme inhibitors (AID 588742); assay type: functional; conditions: Chlorocebus sabaeus
INS1 = test: INS-1E survival protection against cytokine death – cell-based, luminescence, retest, dose response (AID 449756); assay type: functional; conditions: Rattus norvegicus;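 also: cell death triggered by IL-1 beta plus TNF-alpha plus IFN-gamma mixture; protective hits raise ATP signal compared with cytokine alone wells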
P388/ADR = test: cells; assay type: functional; conditions: Mus musculus
SN12K1 = test: cells; assay type: functional; conditions: Homo sapiens
Beta-galactosidase = Beta-galactosidase (Escherichia coli, UniProt Q8VNN2); test: detection-enzyme interference by beta-gal modulators – biochemical, E. coli enzyme, set 3, artefact control for CCR6 antagonist project, dose response (AID 504712); assay type: functional

O=C(Nc1cccc(C(F)(F)F)n1)Nc1ccnc2cc(OC(F)F)ccc12
inactive: Ki [1] > 3.98 µM | Ki [2] > 3.16 µM | Ki [3] > 3.16 µM | Ki [4] > 3.98 µM | Ki (LIM domain kinase 1) > 3.16 µM | Ki [5] > 2 µM | Ki [6] > 3.98 µM | Ki [7] > 2.51 µM | Ki [8] > 3.98 µM | Ki [9] > 2.51 µM

O=C(Nc1cccc(C(F)(F)F)n1)Nc1ccnc2cc(Cl)ccc12
inactive: Ki [2] > 3.16 µM | Ki [4] > 3.98 µM | Ki [5] > 2 µM | Ki [6] > 3.98 µM | Ki [7] > 2.51 µM | Ki [8] > 3.98 µM | Ki [9] > 2.51 µM

O=C(Cc1ccccc1)NC1(O)C(=O)c2ccccc2C1=O
active: AC50 [10] 7.11 µM

COC(=O)c1nc(-c2ccc3c(n2)C(=O)C(=N)C(OC)=C3O)c(N)c(-c2ccc(OC)c(OC)c2O)c1C
active: EC50 (BJ) 10.3 µM | IC50 (Nonstructural protein 1) > 100 µM | CC50 (Vero) 0.18 µM | AC50 (INS1) 1.56 µM | GI50 (SN12K1) 0.537 µM
inactive: GI50 (P388/ADR) 1.4 µM | AC50 [10] > 20 µM

Cc1cc(C)c(S(=O)(=O)/N=C2\C=C(Nc3ccc(C(=O)O)cc3)C(=O)c3ccccc32)c(C)c1
active: IC50 (Beta-galactosidase) 36.1 µM | IC50 (Nonstructural protein 1) 20.8 µM | CC50 (Vero) 9.71 µM | AC50 (INS1) 2.51 µM

CCC1CC(NS(=O)(=O)C2CC2)CC1c1ncc2cnc3[nH]ccc3n12 (centres undefined)
inactive: Ki [2] > 3.16 µM | Ki [4] > 3.98 µM | Ki [7] > 2.51 µM | Ki [8] > 3.98 µM
active: Ki [9] 0.2 µM

O=c1[nH]c2cc(Br)cnc2[nH]1
active: Ki [1] 31.6 µM | Ki [2] 79.4 µM | Ki [3] 31.6 µM | Ki [8] 12.6 µM | Ki [9] 7.94 µM
